From patent publication EP2711367A1, “New spiroepoxide tetrahydrobenzo-triazoles and -imidazoles and their use as MetAP-II inhibitors” (Deutsches Krebsforschungszentrum, priority 2012, dated 2014)
Read-outs that look alike come from different tables or passages of the source.

Legend:
E. coli MetAP = E. coli MetAP (Escherichia coli, UniProt P0AE18); assay: MetAP inhibitory activity, Met-Gly-Met-Met substrate, HPLC detection of Gly-Met-Met; type: biochemical; details: for E. Coli % inhibition: single concentration: inhibitor 25 µM, enzyme 50 nM, 20 minutes substrate incubation at 37 °C; for inhibition at 25 µM: read-out: E. Coli % inhibition
Method: (§1) The below protocol describes the measurement of the inhibitory activity of the compounds of the present invention by using E. coli MetAP, hsMetAP-I, and hsMetAP-II.
(§2) Inhibition activity of compounds was studied using the tetrapeptide substrate Met-Gly-Met-Met (Bachem) followed by HPLC analysis of the product Gly-Met-Met. The assay was performed in 96 well plates (Greiner) at a total reaction volume of 100 µl. […] A positive control with DMSO solution instead of inhibitor at the corresponding concentration was prepared. Then the substrate Met-Gly-Met-Met was added to a final concentration of 400 µM. After an incubation period of 15 minutes (HsMetAP-I), 20 minutes (EcMetAP) or 60 minutes (HsMetAP-II) at 37 °C, the enzyme reaction was stopped by adding 10 µl 4 % trifluoroacetic acid. The plate was centrifuged at 1000 x g for 10 minutes.
(§3) Detection of the product Gly-Met-Met was performed by HPLC (Jasco), and typically using the following, or equivalent conditions: C18 column (Dr. Maisch, ReproSil-Pur® 120 ODS-3, 3 µm, 50 x 2 mm). 80 µl of sample were applied on the column and eluted with mobile phase A (water and 0.1 % trifluoroacetic acid, filtered, degassed) and B (acetonitrile and 0.1 % trifluoroacetic acid, degassed) over 8 minutes.
(§4) Percentage inhibition was calculated as the relation of Gly-Met-Met amount resulting in inhibited and uninhibited enzyme reaction (positive control). […] The values were determined in relation to positive controls with equal DMSO contents. The inhibition values for the varying concentrations of inhibitor were then fitted to a logarithmic dose-response curve and the IC50 values were calculated from the equation thus obtained.

hsMetAP-I = hsMetAP-I (Homo sapiens, UniProt P53582); assay: as above; type: biochemical, hs; details: single concentration: inhibitor 25 µM, enzyme 50 nM, 15 minutes substrate incubation at 37 °C
Method: as §1, §2, §3, §4

hsMetAP-II = hsMetAP-II (Homo sapiens, UniProt P50579); assay: as above; type: biochemical, hs
Method: as §1
Inhibition activity of compounds was studied using the tetrapeptide substrate Met-Gly-Met-Met (Bachem) followed by HPLC analysis of the product Gly-Met-Met. The assay was performed in 96 well plates (Greiner) at a total reaction volume of 100 µl. […] Then the substrate Met-Gly-Met-Met was added to a final concentration of 400 µM. After an incubation period of 15 minutes (HsMetAP-I), 20 minutes (EcMetAP) or 60 minutes (HsMetAP-II) at 37 °C, the enzyme reaction was stopped by adding 10 µl 4 % trifluoroacetic acid. The plate was centrifuged at 1000 x g for 10 minutes.
as §3, §4

[1] = tested on: human umbilical vein endothelial cells (HUVEC); assay: HUVEC growth arrest, crystal violet staining; type: cell-based
From the text: For the measurement of the HUVEC growth arrest (Example 19) and the used materials and equipment were:
• Cells: Primary human umbilical vein cells (HUVEC) were obtained from GIBCO (Cat. C-015-5C). • Cell culture medium: Medium 200 supplemented with LSGS (Gibco, Cat. M-200-500). • Trypsin/EDTA (Gibco, Cat R-001-100) • Trypsin Neutralizer solution (Gibco, Cat R-002-100). • Crystal violet (Merck / Cat. no. 1408) • Ethanol (Riedel-de-Haen / Cat. no. 32205) • Acetic acid (Riedel-de-Haen / Cat. no. 33209) • Culture flasks: Coming, 430168 • 96 well plates: Greiner, 655 101
• Microtiter pipettes: •Brand Transferpette-8, • Gilson Pipetman 20 and 200 Laminar air flow cabinet: Gelman, Celaire • ELISA reader: Thermo, Multiskan Ascent • Microscope: Leitz Diavert • Balance: Sartorius RC 210 D • CO2 incubator: Heraeus CO2-Auto-Zero • Centrifuge: Heraeus Biofuge primo • Cell counter: Assistent, Neubauer hematocytometer
Crystal violet solution: • Crystal violet (Merck) was dissolved in ethanol (PA quality, Roth) to a concentration of 10 %. The solution was diluted with ddH2O 1:20.
Test compounds: • Compounds of the present invention were dissolved at a concentration of 10 mM in DMSO (Roth, Cat. 47201). Stock solutions of test compounds were diluted 1:10 not earlier than 1 hour before the assay was made.
• 1. HUVEC cells were seeded in 96-well plates ([…]). • 2. 6 hours later test compounds were added in triplicates Concentrations of test compound: 0, 1.6, 3.2, 6.3, 12.5, 25, 50, 100 µM. Fresh medium and test compounds were added every 48 hr. • 3. One 96 well plate (t=0) with untreated cells was fixed at the same time point as treatment of cells with test compounds was initiated. • 4. Test plates were incubated for 10 days in a CO2 incubator. • 5. Fixation of cells: Wells were washed with 100 µL/well PBS. PBS was decanted and 100 µL of 3 % formaldehyde/well was added. After 5 min, formaldehyde was decanted and plates were dried upside down on blotting paper overnight at room temperature. • 6. Staining: 0.1 mL of crystal violet solution was added to each well with a 12-channel pipette. After incubation for 5 min at room temperature, the crystal violet solution was decanted and plates were washed 5 x by submersion in 3 L fresh water. • 7. After drying (plates were dried on blotting paper upside down overnight) 0.1 mL of ethanol/acetic acid (99:1) was added to each well and the optical density at 595 nm was determined in an ELISA reader.
The evaluation of the growth inhibitory activity was carried out as follows: • Definitions: Growth: Mean OD at t=10 d - mean OD at t=0. • Evaluation: Dose response curves were established by plotting growth against concentration of compounds using Microsoft Excel.

[2] = background, Phase II clinical compound; cited from earlier work
[3] = hsMetAP-II IC50, enzyme 50 nM, 400 µM Met-Gly-Met-Met, 60 minutes at 37 °C
[4] = read-out: hsMetAP-II % inhibition, single concentration: inhibitor 25 µM, enzyme 50 nM, 60 minutes substrate incubation at 37 °C
[5] = Homo sapiens, HUVEC, 240 h, growth over 10 days, 0-100 µM, OD at 595 nm, read-out: HUVEC IC50
[6] = single concentration: inhibitor 25 µM, enzyme 50 nM, 60 minutes substrate incubation at 37 °C
[7] = growth over 10 days, 0-100 µM, OD at 595 nm, read-out: HUVEC IC50
[8] = enzyme 50 nM, 400 µM Met-Gly-Met-Met, 60 minutes at 37 °C, read-out: hsMetAP-II IC50
[9] = single concentration: inhibitor 25 µM, enzyme 50 nM, 60 minutes substrate incubation at 37 °C, read-out: hsMetAP-II % inhibition

E. coli MetAP, sequence (P0AE18 whole entry): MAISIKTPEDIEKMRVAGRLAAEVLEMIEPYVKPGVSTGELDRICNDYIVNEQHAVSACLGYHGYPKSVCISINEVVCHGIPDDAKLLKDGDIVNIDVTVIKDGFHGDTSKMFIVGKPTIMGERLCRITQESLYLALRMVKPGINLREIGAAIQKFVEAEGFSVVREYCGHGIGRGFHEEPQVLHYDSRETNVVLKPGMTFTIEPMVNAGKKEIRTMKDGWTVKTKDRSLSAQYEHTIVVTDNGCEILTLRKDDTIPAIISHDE
hsMetAP-II, sequence (P50579 whole entry): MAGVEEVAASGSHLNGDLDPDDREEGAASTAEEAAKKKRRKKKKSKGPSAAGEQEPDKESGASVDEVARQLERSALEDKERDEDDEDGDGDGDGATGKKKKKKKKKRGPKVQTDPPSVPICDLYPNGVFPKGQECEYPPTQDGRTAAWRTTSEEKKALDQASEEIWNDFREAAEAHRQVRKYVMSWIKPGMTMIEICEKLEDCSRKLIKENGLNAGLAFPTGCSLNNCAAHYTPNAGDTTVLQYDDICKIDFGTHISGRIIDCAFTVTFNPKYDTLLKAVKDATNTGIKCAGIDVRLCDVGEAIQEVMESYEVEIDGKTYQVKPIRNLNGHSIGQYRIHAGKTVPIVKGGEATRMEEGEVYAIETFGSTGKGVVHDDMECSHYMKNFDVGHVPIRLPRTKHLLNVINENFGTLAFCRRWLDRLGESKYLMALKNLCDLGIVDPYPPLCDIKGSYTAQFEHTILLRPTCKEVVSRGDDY

COc1ccc(Cn2nnc3c2[C@]2(CC[C@H]3OC(=O)c3ccccc3)CO2)cc1 (racemic) [UWU-II-023-A]
E. Coli % inhibition (E. coli MetAP): Inactive | hsMetAP-I % inhibition (hsMetAP-I): Inactive | inhibitory effect on MetAP-II (in words) (hsMetAP-II): good inhibitory effect | IC50 (hsMetAP-II; [3]): 600 ± 10 nM | inhibition at 25 µM (hsMetAP-II; [4]): 98.6 ± 0.4% | IC50 ([1]; Homo sapiens, HUVEC, 240 h, read-out: HUVEC IC50, growth over 10 days, 0-100 µM, OD at 595 nm): 2400 nM

COc1ccc(Cn2nnc3c2[C@@]2(CC[C@H]3OC(=O)c3ccccc3)CO2)cc1 (racemic) [UWU-XII-023-D]
E. Coli % inhibition (E. coli MetAP): Inactive | hsMetAP-I % inhibition (hsMetAP-I): Inactive | IC50 (hsMetAP-II; [3]): 17000 ± 12000 nM | inhibition at 25 µM (hsMetAP-II; [4]): 45 ± 4% | IC50 [1, 5]: 2100 nM

CC(C)NC(=O)O[C@@H]1CC[C@]2(CO2)c2c1nnn2Cc1ccccc1 (racemic) [UWU-XII-128-A]
inhibition at 25 µM (E. coli MetAP): 24 ± 2% | hsMetAP-I % inhibition (hsMetAP-I): Inactive | inhibitory effect on MetAP-II (in words) (hsMetAP-II): good inhibitory effect | IC50 (hsMetAP-II; [3]): 420 ± 70 nM | inhibition at 25 µM (hsMetAP-II; [4]): 100% | IC50 [1, 5]: 1200 nM

CC(C)NC(=O)O[C@@H]1CC[C@@]2(CO2)c2c1nnn2Cc1ccccc1 (racemic) [UWU-XII-128-C]
inhibition at 25 µM (E. coli MetAP): 18 ± 2% | hsMetAP-I % inhibition (hsMetAP-I): Inactive | IC50 (hsMetAP-II; [3]): 18000 ± 9000 nM | inhibition at 25 µM (hsMetAP-II; [4]): 60 ± 5% | IC50 [1, 5]: 9500 nM

COc1ccc(Cn2nnc3c2C2(CCC3OC(=O)NCC(C)C)CO2)cc1 (racemic) [UWU-XII-142-A]
inhibition at 25 µM (E. coli MetAP): 18.7 ± 0.8% | hsMetAP-I % inhibition (hsMetAP-I): Inactive | IC50 (hsMetAP-II): 150 ± 30 nM | inhibition at 25 µM (hsMetAP-II; [4]): 100% | IC50 [1, 5]: 2400 nM

COc1ccc(Cn2nnc3c2C2(CCC3OC(=O)Nc3ccccc3)CO2)cc1 (racemic) [UWU-XII-149-A]
E. Coli % inhibition (E. coli MetAP): Inactive | hsMetAP-I % inhibition (hsMetAP-I): Inactive | IC50 (hsMetAP-II; [3]): 990 ± 50 nM | hsMetAP-II % inhibition (hsMetAP-II; [6]): 100% | IC50 [1, 7]: 3200 nM

COc1ccc(Cn2nnc3c2C2(CCC3OC(=O)Nc3ccccc3)CO2)cc1 (racemic) [UWU-XIII-005-A]
E. Coli % inhibition (E. coli MetAP): Inactive | hsMetAP-I % inhibition (hsMetAP-I): Inactive | IC50 (hsMetAP-II; [3]): 18000 ± 5000 nM | hsMetAP-II % inhibition (hsMetAP-II; [6]): 44 ± 6% | IC50 [1, 7]: 14900 nM

COc1ccc(Cn2nnc3c2[C@@]2(CC[C@@H]3OC(=O)NC(C)C)CO2)cc1 [(-)-UWU-XII-131-A]
E. Coli % inhibition (E. coli MetAP): Inactive | hsMetAP-I % inhibition (hsMetAP-I): Inactive | IC50 [1, 5]: 8200 nM

O=C1CCC2(CO2)c2c1nnn2Cc1ccc(C(F)(F)F)cc1 (stereo not shown) [BK-I-161-A]
E. Coli % inhibition (E. coli MetAP): Inactive | hsMetAP-I % inhibition (hsMetAP-I): Inactive | inhibitory effect on MetAP-II (in words) (hsMetAP-II): good inhibitory effect | IC50 (hsMetAP-II; [8]): 520 ± 50 nM | inhibition at 25 µM (hsMetAP-II; [9]): 100% | IC50 [1, 5]: 900 nM

O=C1CCC2(CO2)c2c1nnn2CC1CCCCC1 (stereo not shown) [BK-I-177-A]
inhibition at 25 µM (E. coli MetAP): 19 ± 5% | hsMetAP-I % inhibition (hsMetAP-I): Inactive | IC50 (hsMetAP-II; [8]): 17000 ± 6000 nM | inhibition at 25 µM (hsMetAP-II; [9]): 40 ± 3% | IC50 [1, 5]: 9700 nM

O=C1CCC2(CO2)c2c1nnn2Cc1ccc(F)cc1 (stereo not shown) [BK-I-178-A]
inhibition at 25 µM (E. coli MetAP): 13 ± 5% | hsMetAP-I % inhibition (hsMetAP-I): Inactive | IC50 (hsMetAP-II; [8]): 870 ± 90 nM | inhibition at 25 µM (hsMetAP-II; [9]): 100% | IC50 [1, 5]: 3200 nM

O=C1CCC2(CO2)c2c1nnn2Cc1ccc(Cl)cc1 (stereo not shown) [BK-I-184-A]
inhibition at 25 µM (E. coli MetAP): 14 ± 5% | hsMetAP-I % inhibition (hsMetAP-I): Inactive | IC50 (hsMetAP-II; [8]): 740 ± 30 nM | inhibition at 25 µM (hsMetAP-II; [9]): 100% | IC50 [1, 5]: 7400 nM

COc1ccc(Cn2nnc3c2C2(CCC3=O)CO2)cc1 (stereo not shown) [HHS-I-028-B]
E. Coli % inhibition (E. coli MetAP): Inactive | hsMetAP-I % inhibition (hsMetAP-I): Inactive | inhibitory effect on MetAP-II (in words) (hsMetAP-II): good inhibitory effect | IC50 (hsMetAP-II; [8]): 980 ± 30 nM | inhibition at 25 µM (hsMetAP-II; [9]): 97 ± 0.3% | IC50 [1, 5]: 8800 nM

CO[C@@H]1[C@H](OC(=O)NC(=O)CCl)CC[C@]2(CO2)[C@H]1[C@@]1(C)O[C@@H]1CC=C(C)C [TNP-470]
plasma half-life [2]: ~ 2 min

COc1ccc(Cn2nnc3c2C2(CCC3OC(=O)NCC(N)=O)CO2)cc1 (stereo not shown) [UWU-XII-143-A]
inhibition at 25 µM (E. coli MetAP): 12 ± 1% | hsMetAP-I % inhibition (hsMetAP-I): Inactive | IC50 (hsMetAP-II; [3]): 230 ± 20 nM | inhibition at 25 µM (hsMetAP-II; [4]): 100% | IC50 [1, 5]: 2600 nM
